Values of other authors as cited in patent publication US20240191206A1, “SERUM FREE MEDIA FOR SUSPENSION CULTURE OF MAMMALIAN LIVESTOCK PLURIPOTENT STEM CELLS” (ACCELLTA LTD., priority 2021, published 2024).

Which stability in water does the source give for `O=S(=O)(F)Cc1ccccc1` [PMSF, phenylmethylsulfonyl fluoride] here?
The stability in water was “rapidly degraded”.

And the “concentration at which proteolytic inhibition occurs” value (serine protease)?
Its value is 0.1 to 1 mM.
